Assay results: patent US20260215423A1, “NOVEL CARBOXAMIDE AND SULFONAMIDE PESTICIDAL COMPOUNDS” (SYNGENTA CROP PROTECTION AG, priority 2023, published 2026)

Assays:
Format in all cases: in vivo
[1] = system: Bemisia tabaci (Cotton White Fly); experiment: Bemisia tabaci (Cotton White Fly): Feeding/Contact Activity; conditions: foliar, 144 h, application rate of 200 ppm, cotton leaf discs sprayed, adult white flies, 6 days after incubation
Method: Example B1: Bemisia tabaci (Cotton White Fly): Feeding/Contact Activity
Cotton leaf discs were placed on agar in 24-well microtiter plates and sprayed with aqueous test solutions prepared from 10′000 ppm DMSO stock solutions. After drying the leaf discs were infested with adult white flies. The samples were checked for mortality 6 days after incubation.

[2] = system: Diabrotica balteata (Corn root worm); experiment: Diabrotica balteata (Corn root worm); conditions: 96 h, application rate of 200 ppm, maize sprouts sprayed, L2 larvae, 4 days after infestation, read-out: effect in at least one of the two categories (mortality or growth inhibition)
Method: Example B2: Diabrotica balteata (Corn root worm)
Maize sprouts placed onto an agar layer in 24-well microtiter plates were treated with aqueous test solutions prepared from 10′000 ppm DMSO stock solutions by spraying. After drying, the plates were infested with L2 larvae (6 to 10 per well). The samples were assessed for mortality and growth inhibition in comparison to untreated samples 4 days after infestation.

[3] = system: Euschistus heros (Neotropical Brown Stink Bug); experiment: Euschistus heros (Neotropical Brown Stink Bug); conditions: 120 h, application rate of 200 ppm, soybean leaves sprayed, N2 nymphs, 5 days after infestation, read-out: effect in at least one of the two categories (mortality or growth inhibition)
Method: Example B3: Euschistus heros (Neotropical Brown Stink Bug)
Soybean leaves on agar in 24-well microtiter plates were sprayed with aqueous test solutions prepared from 10′000 ppm DMSO stock solutions. After drying the leaves were infested with N2 nymphs. The samples were assessed for mortality and growth inhibition in comparison to untreated samples 5 days after infestation.

[4] = system: Frankliniella occidentalis (Western Flower Thrips); experiment: Frankliniella occidentalis (Western Flower Thrips): Feeding/Contact Activity, sunflower leaf discs; conditions: foliar, 168 h, application rate of 200 ppm, sunflower leaf discs sprayed, population of mixed ages, 7 days after infestation
Method: Example B4: Frankliniella occidentalis (Western Flower Thrips):Feeding/Contact Activity
(§1) Sunflower leaf discs were placed on agar in 24-well microtiter plates and sprayed with aqueous test solutions prepared from […] stock solutions. After drying the leaf discs were infested with a Frankliniella population of mixed ages. The samples were assessed for mortality 7 days after infestation.

[5] = system: Myzus persicae (Green Peach Aphid); experiment: Myzus persicae (Green Peach Aphid): Feeding/Contact Activity, sunflower leaf discs; conditions: foliar, 144 h, application rate of 200 ppm, sunflower leaf discs sprayed, aphid population of mixed ages, 6 days after infestation
Method: Example B6: Myzus persicae (Green Peach Aphid):Feeding/Contact Activity
Sunflower leaf discs were placed onto agar in a 24-well microtiter plate and sprayed with aqueous test solutions prepared from 10′000 ppm DMSO stock solutions. After drying, the leaf discs were infested with an aphid population of mixed ages. The samples were assessed for mortality 6 days after infestation.

[6] = system: Myzus persicae (Green Peach Aphid); experiment: Myzus persicae (Green Peach Aphid). Intrinsic Activity; conditions: 120 h, test rate of 12 ppm, mixed with sucrose solution, feeding through Parafilm, 5 days after infestation
Source text: Example B7: Myzus persicae (Green Peach Aphid). Intrinsic Activity
Test compounds prepared from 10′000 ppm DMSO stock solutions were applied by pipette into 24-well microtiter plates and mixed with sucrose solution. The plates were closed with a stretched Parafilm. A plastic stencil with 24 holes was placed onto the plate and infested pea seedlings were placed directly on the Parafilm. The infested plate was closed with a gel blotting paper and another plastic stencil and then turned upside down. The samples were assessed for mortality 5 days after infestation.

[7] = system: Myzus persicae (Green Peach Aphid); experiment: Myzus persicae (Green Peach Aphid) Feeding/Contact Activity, eggplant leaf discs; conditions: foliar, 144 h, application rate of 200 ppm, eggplant leaf discs sprayed, aphid population of mixed ages, 6 days after infestation, read-out: growth inhibition
Source text: Example B8: Myzus persicae (Green Peach Aphid) Feeding/Contact Activity Eggplant leaf discs were placed onto agar in a 24-well microtiter plate and sprayed with aqueous test solutions prepared from 10′000 ppm DMSO stock solutions. After drying, the leaf discs were infested with an aphid population of mixed ages. […]

[8] = system: Plutella xylostella (Diamond back moth); experiment: Plutella xylostella (Diamond back moth); conditions: 192 h, application rate of 200 ppm, artificial diet treated by pipetting, Plutella eggs, 8 days after infestation, read-out: effect in at least one of the two categories (mortality or growth inhibition)
Method: After drying, Plutella eggs were pipetted through a plastic stencil onto a gel blotting paper and the plate was closed with it. The samples were assessed for mortality and growth inhibition in comparison to untreated samples 8 days after infestation.

[9] = system: Tetranychus urticae (Two-Spotted Spider Mite); experiment: Tetranychus urticae (Two-Spotted Spider Mite): Feeding/Contact Activity; conditions: foliar, 192 h, application rate of 200 ppm, bean leaf discs sprayed, mite population of mixed ages (mobile stages), 8 days after infestation
Method: Example B11: Tetranychus urticae (Two-Spotted Spider Mite):Feeding/Contact Activity
Bean leaf discs on agar in 24-well microtiter plates were sprayed with aqueous test solutions prepared from 10,000 ppm DMSO stock solutions. After drying the leaf discs were infested with a mite population of mixed ages. The samples were assessed for mortality on mixed population (mobile stages) 8 days after infestation.

[10] = system: Frankliniella occidentalis (Western Flower Thrips); experiment: Frankliniella occidentalis (Western Flower Thrips) Feeding/Contact Activity, bean leaf discs; conditions: foliar, 96 h, application rate of 200 ppm, bean leaf discs sprayed, population of mixed ages, 4 days after infestation, read-out: growth inhibition
Method: as §1, with “Example B5: Frankliniella occidentalis (Western Flower Thrips) Feeding/Contact Activity Bean” for “Sunflower”, “4” for “7”

[11] = system: Spodoptera littoralis (Egyptian Cotton Leaf Worm); experiment: Spodoptera littoralis (Egyptian Cotton Leaf Worm); conditions: foliar, 72 h, application rate of 200 ppm, cotton leaf discs sprayed, five L1 larvae, 3 days after infestation, read-out: control (mortality, anti-feeding effect, growth inhibition)
Method: Example B10: Spodoptera littoralis (Egyptian Cotton Leaf Worm)
Cotton leaf discs were placed onto agar in 24-well microtiter plates and sprayed with aqueous test solutions prepared from 10′000 ppm DMSO stock solutions. After drying the leaf discs were infested with five L1 larvae. The samples were assessed for mortality, anti-feeding effect, and growth inhibition in comparison to untreated samples 3 days after infestation. Control of Spodoptera littoralis by a test sample is given when at least one of the categories mortality, anti-feedant effect, and growth inhibition is higher than the untreated sample.

CCC(=O)NCc1cc(OC[C@H](C)N(COC)S(=O)(=O)C(F)(F)F)ccc1Cl [P-3, N-[[2-chloro-5-[(2S)-2-[methoxymethyl(tri-fluoromethylsulfonyl)-amino]propoxy]phenyl]methyl]propanamide]
≥ 80%: mortality at 200 ppm [1] | percent effect (mortality or growth inhibition) at 200 ppm [2] | percent effect (mortality or growth inhibition) at 200 ppm [3] | mortality at 200 ppm [4] | mortality at 200 ppm [5] | mortality at 12 ppm [6] | inhibition at 200 ppm [7] | percent effect (mortality or growth inhibition) at 200 ppm [8] | mortality at 200 ppm [9]

CCC(=O)NCc1cc(OC[C@H](C)N(C(=O)CC)S(=O)(=O)C(F)(F)F)ccc1Cl [P-18, N-[[2-chloro-5-[(2S)-2-[propanoyl(trifluoro-methylsulfonyl)amino]propoxy]phenyl]methyl] propanamide]
≥ 80%: percent effect (mortality or growth inhibition) at 200 ppm [2] | percent effect (mortality or growth inhibition) at 200 ppm [3] | inhibition at 200 ppm [10] | mortality at 12 ppm [6] | inhibition at 200 ppm [7] | percent effect (mortality or growth inhibition) at 200 ppm [8] | mortality at 200 ppm [11] | mortality at 200 ppm [9]
